Where a name gives a salt, the structure may show the parent alone.
Experiments:
[1] = tested on: B. bronchiseptica ATCC 4617; format: cell-based, Bordetella bronchiseptica; conditions: ATCC 4617, 24 h
Method: (§1) Bacteria. Staphylococcus aureus ATCC 25923, Pseudomonas aeruginosa ATCC 27853, Escherichia coli ATCC 25922 and Staphylococcus aureus ATCC 43300 were cultivated on tryptone - soy agar (TSA; Oxoid). Klebsiella pneumoniaeATCC 13882, Bordetella bronchiseptica ATCC 4617, Acinetobacter baumannii ATCC 19606 were cultivated onto nutrient agar (Difco). Escherichia coli ATCC BAA-198 was cultivated on TSA with ceftazidime (10 µg/mL or 15.7 μM; Sigma). All strains were incubated during 24 hrs at 37 °C.
(§2) Medium. Mueller – Hinton Broth (Oxoid) was supplemented with cations: 12.5 mg Mg ^++/L and25 mg Ca^++/L. The pH of the medium after sterilization is between 7.2 and 7.4 [cation–adjusted Mueller – Hinton Broth” (CAMHB)].
(§3) Reference method. Broth microdilution susceptibility test was performed as described in […] reference method M7-A7 (2). A series of the twofold dendrimers dilutions in DMSO and twofold polymyxin B and penicillin G dilutions in CAMHB were diluted […] with CAMHB. Aliquots (95 µL) were dispensed into microdilution sterile plates (Mar-Four). Then, bacteria inoculum (5 µL) containing 5 × 10^4 CFU/mL were added. The final concentration of dendrimers ranged from 128 to 2 µg/mL [or 105 to 1.6 μM for an average molecular mass for 7 series (1213) and 61 to 0.9 μM for an average molecular mass for 10 series(2,103)], polymyxin B and penicillin G from 8 – 0.15 µg /mL (or 5.8 to 0.1 μM and 21.5 to 0.4 μM, respectively for polymyxin B and penicillin G), all in twofold dilution steps. The plates were incubated at 35 °C and read after 18 or 24 hours depending on bacterial strain. MICs (Minimal Inhibitory Concentration) was defined as the lowest drug concentration that reduced growth by 100%.

C. albicans ATCC 90028 = format: cell-based, Candida albicans; conditions: ATCC 90028, 48 h, pH 7
Method: (§4) Yeasts: Candida albicans ATCC 90028, Candida parapsilosis ATCC 22019 and Candida krusei ATCC 6258 were cultivated onto Sabouraud dextrose agar (Difco) during 24 hrs at 35 °C.
(§5) Medium: RPMI – 1640 (Sigma) supplemented with 0.2% (wt/vol) glucose, 0.3 g/L L-glutamine, 0.0053 g/L phenol red, buffered with morpholinopropanesulfonic acid (MOPS; Sigma) at a final concentration of 0.165 M and adjusted to pH 7.0 was prepared.
(§6) Reference Method: The broth microdilution susceptibility test was performed as described in Clinical and Laboratory Standards Institute (CLSI) reference method M27 – A2 (1). A series of the twofold dendrimers and amphotericin B dilutions in DMSO were diluted 1:49 with RPMI.

human red blood cells = test: Hemolysis assay; format: cell-based; conditions: at a concentration of 400 μM, 1% hematocrit in PBS pH 7.4, 30 min at 23 °C, absorbance at 540 nm
Method: Dendrimer induced hemolysis was observed as previously reported. Briefly, serum free human red blood cells obtained from the Institute of Hematology and Transfusion Medicine in Warsaw, were suspended in phosphate buffered saline (PBS, pH 7.4). Prepared suspension of 1% hematocrit was incubated with serial concentration of dendrimers for 30 min at 23 °C. After centrifugation (1,000 rpm, 5 min) the absorbance of supernatant was measured at 540 nm (Jasco 630, Japan). A value of 100% hemolysis was determined by incubation of erythrocytes with double-distilled water (30 min at 23^o). In a control experiment, cells were incubated in buffer without peptide and absorbance at 540 nm value was used as a blank.
A - absorbance of the samples incubated with dendrimers; Ab – absorbance of the blank samples; A100% - absorbance of the reference; Ac - absorbance of red blood cells in PBS, hematocrit 1%.

C. krusei ATCC 6258 = test: microbe, parasite or virus in culture; format: cell-based, Candida krusei; conditions: ATCC 6258, 48 h, pH 7; read-out: Minimal inhibitory concentration (MIC)
Method: as §4, §5, §6

K. pneumoniae ATCC 13882 = format: cell-based, Klebsiella pneumoniae; conditions: ATCC 13882, 24 h
Method: as §1, §2, §3

P. aeruginosa ATCC 27853 = format: cell-based, Pseudomonas aeruginosa; conditions: ATCC 27853, 24 h
Method: as §1, §2, §3

S. aureus ATCC 25923 = test: microbe, parasite or virus in culture; format: cell-based, Staphylococcus aureus; conditions: ATCC 25923, 24 h, pH 7.2; read-out: Minimal inhibitory concentration (MIC)
Method: as §1, §2, §3

A. baumani ATCC 19606 = format: cell-based, Acinetobacter baumannii; conditions: ATCC 19606, 24 h
Method: as §1, §2, §3

S. aureus ATCC 43300 = format: cell-based, Staphylococcus aureus; conditions: ATCC 43300, 24 h
Method: as §1, §2, §3

[2] = tested on: C. parapsilosis ATCC 22019; format: cell-based, Candida parapsilosis; conditions: ATCC 22019, 48 h, pH 7
Method: as §4, §5, §6

E.coli ATCC 25922 = format: cell-based, Escherichia coli; conditions: ATCC 25922, 24 h
Method: as §1, §2, §3

E. coli ATCC BAA-198 = format: cell-based, Escherichia coli; conditions: ATCC BAA-198, 24 h
Method: as §1, §2, §3

SMILES | Minimal inhibitory concentration (MIC) [1] [µM] | Minimal inhibitory concentration (MIC) (C. albicans ATCC 90028) [µM] | toxicity (hemolysis) (human red blood cells) [%] | MIC (C. krusei ATCC 6258) [µM] | Minimal inhibitory concentration (MIC) (K. pneumoniae ATCC 13882) [µM] | Minimal inhibitory concentration (MIC) (P. aeruginosa ATCC 27853) [µM] | MIC (S. aureus ATCC 25923) [µM] | Minimal inhibitory concentration (MIC) (A. baumani ATCC 19606) [µM] | Minimal inhibitory concentration (MIC) (S. aureus ATCC 43300) [µM] | Minimal inhibitory concentration (MIC) [2] [µM] | Minimal inhibitory concentration (MIC) (E.coli ATCC 25922) [µM] | Minimal inhibitory concentration (MIC) (E. coli ATCC BAA-198) [µM]
NCCCC[C@H](NC(=O)OCc1ccccc1Cl)C(=O)NCCCN[C@@H](CCCN(CCCNC(=O)[C@H](CCCCN)NC(=O)OCc1ccccc1Cl)CCCNC(=O)[C@H](CCCCN)NC(=O)OCc1ccccc1Cl)C(=O)NCc1ccccc1 [Compound 7g, N,N,N’-tris[(N^α-2-chlorobenzyloxycarbonyl)-L-lysil-3-aminopropyl]-L-ornithine benzylamide penta-hydrochloride] | 2.7 | 10.9 | 32 | 5.4 | 87 | 21.8 | 10.9 | 5.4 | 10.9 | 5.4 | 21.8 | 10.9
NCCCC[C@H](NC(=O)OCc1ccccc1Cl)C(=O)N[C@@H](Cc1ccccc1)C(=O)NCCCN(CCCNC(=O)[C@H](Cc1ccccc1)NC(=O)[C@H](CCCCN)NC(=O)OCc1ccccc1Cl)CCC[C@@H](CO)N(CCCNC(=O)[C@H](Cc1ccccc1)NC(=O)[C@H](CCCCN)NC(=O)OCc1ccccc1Cl)CCCNC(=O)[C@H](Cc1ccccc1)NC(=O)[C@H](CCCCN)NC(=O)OCc1ccccc1Cl [Compound 10c, N,N',N,N’-tetrakis[(N^α-2-chlorobenzyloxycarbonyl)-L-lysil-L-phenylalanyl-3-aminopropyl]-L-α,δ-diaminopentanol hexahydrochloride] | 6.8 | 54 |  | 27.3 | 54 | 54 | 27.2 | 27.3 | 13.6 | 54 | 27.3 | 13.6
NCCCC[C@H](NC(=O)OCc1ccccc1Cl)C(=O)N[C@@H](Cc1ccccc1)C(=O)NCCCN(CCCC[C@@H](CO)N(CCCNC(=O)[C@H](Cc1ccccc1)NC(=O)[C@H](CCCCN)NC(=O)OCc1ccccc1Cl)CCCNC(=O)[C@H](Cc1ccccc1)NC(=O)[C@H](CCCCN)NC(=O)OCc1ccccc1Cl)CCCNC(=O)[C@H](Cc1ccccc1)NC(=O)[C@H](CCCCN)NC(=O)OCc1ccccc1Cl [Compound 10d, N,N',N,N’-tetrakis[(N^α-2-chlorobenzyloxycarbonyl)-L-lysil-L-phenylalanyl-3-aminopropyl]-L-α,ε-diaminohexanol hexahydrochloride] | 1.7 | 6.8 |  | 3.4 | >54 | 14 | 3.4 | 3.4 | 1.7 | 3.4 | 6.8 | 3.4
